This note sets out measurements from the supplement of paper PMC10307832.

Assay in all cases: relative viability (nuclei count vs DMSO), 5 days (fraction); higher = more cells survive
Compound in the experiment “XMD8-85 + Crizotinib”: CN1CCN(CC1)C2=CC(=C(C=C2)NC3=NC=C4C(=N3)N(C5=CC=CC=C5C(=O)N4C)C)OC [XMD8-85] + C[C@@H](Oc1cc(-c2cnn(C3CCNCC3)c2)cnc1N)c1c(Cl)ccc(F)c1Cl [Crizotinib] (partner 1 µM)
An outline of the steps: (§1)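 After 5 days of treatment, lung cancer cells in 1536-well plates were fixed and stained in a single step (final 0.05% Triton X-100, 1% formaldehyde, 1 ug/ml Hoechst) and their nuclei counted on 4× images. Treatment had been applied by pin tool the day after seeding as one drug alone or as a fixed anchor-drug dose with five library-drug doses (not always all listed) in √10 steps. Relative viability is the nuclei count of treated wells divided by that of vehicle wells, and values are medians of duplicate plates.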

Compound in the experiment “4EGI-1 + Navitoclax”: O=C(O)C(Cc1ccccc1[N+](=O)[O-])=NNc1nc(-c2ccc(Cl)c(Cl)c2)cs1 (mixture of isomers) [4EGI-1] + CC1(C)CCC(c2ccc(Cl)cc2)=C(CN2CCN(c3ccc(C(=O)NS(=O)(=O)c4ccc(N[C@H](CCN5CCOCC5)CSc5ccccc5)c(S(=O)(=O)C(F)(F)F)c4)cc3)CC2)C1 [Navitoclax] (partner 0.5 µM)
An outline of the steps: as §1

Compound in the experiment “4EGI-1 + Luminespib”: O=C(O)C(Cc1ccccc1[N+](=O)[O-])=NNc1nc(-c2ccc(Cl)c(Cl)c2)cs1 (mixture of isomers) [4EGI-1] + CCNC(=O)c1noc(-c2cc(C(C)C)c(O)cc2O)c1-c1ccc(CN2CCOCC2)cc1 [Luminespib] (partner 0.01 µM)
An outline of the steps:
as §1

Compound in the experiment “4EGI-1 + Dasatinib”: O=C(O)C(Cc1ccccc1[N+](=O)[O-])=NNc1nc(-c2ccc(Cl)c(Cl)c2)cs1 (mixture of isomers) [4EGI-1] + Cc1nc(Nc2ncc(C(=O)Nc3c(C)cccc3Cl)s2)cc(N2CCN(CCO)CC2)n1 [Dasatinib] (partner 0.075 µM)
A digest of the protocol:
as §1

Take EKVX: the relative viability with XMD8-85 + Crizotinib (first compound 0.08 µM) was 0.892; in the experiment with XMD8-85 + Crizotinib (first compound 0.253 µM), 0.985; in the experiment with XMD8-85 + Crizotinib (first compound 0.8 µM) it was 1.12; in the experiment with XMD8-85 + Crizotinib (first compound 2.53 µM) it was 1; with XMD8-85 + Crizotinib (first compound 8 µM) it was 0.886; with 4EGI-1 + Navitoclax (first compound 0.5 µM) it was 1.09. Besides, the relative viability with 4EGI-1 + Navitoclax (first compound 1.581 µM) was determined as 0.77; with 4EGI-1 + Navitoclax (first compound 5 µM), 0.911; with 4EGI-1 + Navitoclax (first compound 15.81 µM), 0.803; in the experiment with 4EGI-1 + Navitoclax (first compound 50 µM), 0.603; in the experiment with 4EGI-1 + Luminespib (first compound 0.5 µM) it was 0.847; in the experiment with 4EGI-1 + Luminespib (first compound 1.581 µM), 0.628. In addition, the relative viability came out at 0.925 in the experiment with 4EGI-1 + Luminespib (first compound 5 µM); 0.701 in the experiment with 4EGI-1 + Luminespib (first compound 15.81 µM); 0.895 with 4EGI-1 + Luminespib (first compound 50 µM); 0.529 in the experiment with 4EGI-1 + Dasatinib (first compound 0.5 µM); 0.641 with 4EGI-1 + Dasatinib (first compound 1.581 µM); 0.443 with 4EGI-1 + Dasatinib (first compound 5 µM). The values for the relative viability with 4EGI-1 + Dasatinib (first compound 15.81 µM) and with 4EGI-1 + Dasatinib (first compound 50 µM) were 0.298 and 0.19, respectively.

On to HOP-62, for which the relative viability with XMD8-85 + Crizotinib (first compound 0.08 µM) is 1.04; with XMD8-85 + Crizotinib (first compound 0.253 µM), 1.07; with XMD8-85 + Crizotinib (first compound 0.8 µM), 0.951; with XMD8-85 + Crizotinib (first compound 2.53 µM), 0.835; with XMD8-85 + Crizotinib (first compound 8 µM) it was 0.724; in the experiment with 4EGI-1 + Navitoclax (first compound 0.5 µM) it was 1.11. For the same cell line, the relative viability is 1.02 with 4EGI-1 + Navitoclax (first compound 5 µM); 0.995 with 4EGI-1 + Navitoclax (first compound 15.81 µM); 1.06 with 4EGI-1 + Navitoclax (first compound 50 µM); 0.974 with 4EGI-1 + Luminespib (first compound 0.5 µM); 0.868 in the experiment with 4EGI-1 + Luminespib (first compound 5 µM); 0.89 in the experiment with 4EGI-1 + Luminespib (first compound 15.81 µM). Moreover, the relative viability with 4EGI-1 + Luminespib (first compound 50 µM) was 0.31; in the experiment with 4EGI-1 + Dasatinib (first compound 0.5 µM) it was 0.796; with 4EGI-1 + Dasatinib (first compound 1.581 µM) it was 0.587; in the experiment with 4EGI-1 + Dasatinib (first compound 5 µM) it was 0.668; with 4EGI-1 + Dasatinib (first compound 15.81 µM) it was 0.568; with 4EGI-1 + Dasatinib (first compound 50 µM) it was 0.473.

Take NCI-H1734: the relative viability with XMD8-85 + Crizotinib (first compound 0.08 µM) was found to be 0.614; with XMD8-85 + Crizotinib (first compound 0.253 µM), 0.646; with XMD8-85 + Crizotinib (first compound 0.8 µM), 0.724; in the experiment with XMD8-85 + Crizotinib (first compound 2.53 µM), 0.577; in the experiment with XMD8-85 + Crizotinib (first compound 8 µM) it was 0.368; in the experiment with 4EGI-1 + Navitoclax (first compound 0.5 µM) it was 0.931. Further, the relative viability worked out at 0.901 with 4EGI-1 + Navitoclax (first compound 1.581 µM); 0.96 in the experiment with 4EGI-1 + Navitoclax (first compound 5 µM); 0.851 with 4EGI-1 + Navitoclax (first compound 15.81 µM); 0.492 in the experiment with 4EGI-1 + Navitoclax (first compound 50 µM); 0.203 in the experiment with 4EGI-1 + Luminespib (first compound 0.5 µM); 0.193 with 4EGI-1 + Luminespib (first compound 1.581 µM). Moreover, the relative viability with 4EGI-1 + Luminespib (first compound 5 µM) is 0.22; with 4EGI-1 + Luminespib (first compound 15.81 µM) it was 0.2; with 4EGI-1 + Luminespib (first compound 50 µM), 0.177; in the experiment with 4EGI-1 + Dasatinib (first compound 0.5 µM), 0.562; in the experiment with 4EGI-1 + Dasatinib (first compound 1.581 µM), 0.415; in the experiment with 4EGI-1 + Dasatinib (first compound 5 µM), 0.46. For the same cell line, the results for the relative viability in the experiment with 4EGI-1 + Dasatinib (first compound 15.81 µM) and in the experiment with 4EGI-1 + Dasatinib (first compound 50 µM) were 0.396 and 0.218, respectively.

For EMC-BAC-2, the relative viability came to 0.748 with XMD8-85 + Crizotinib (first compound 0.08 µM); 0.794 with XMD8-85 + Crizotinib (first compound 0.8 µM); 0.662 in the experiment with XMD8-85 + Crizotinib (first compound 2.53 µM); 0.72 with XMD8-85 + Crizotinib (first compound 8 µM); 1.16 with 4EGI-1 + Navitoclax (first compound 0.5 µM); 1.2 with 4EGI-1 + Navitoclax (first compound 1.581 µM). Besides, the relative viability with 4EGI-1 + Navitoclax (first compound 5 µM) worked out at 1.05; in the experiment with 4EGI-1 + Navitoclax (first compound 15.81 µM), 1.08; with 4EGI-1 + Navitoclax (first compound 50 µM), 1.09; with 4EGI-1 + Luminespib (first compound 0.5 µM) it was 1.25; with 4EGI-1 + Luminespib (first compound 1.581 µM) it was 1.01; with 4EGI-1 + Luminespib (first compound 5 µM) it was 1.16. The relative viability in the experiment with 4EGI-1 + Luminespib (first compound 15.81 µM) worked out at 1.15; with 4EGI-1 + Luminespib (first compound 50 µM), 1.06; with 4EGI-1 + Dasatinib (first compound 0.5 µM) it was 0.369; in the experiment with 4EGI-1 + Dasatinib (first compound 1.581 µM), 0.298; with 4EGI-1 + Dasatinib (first compound 5 µM), 0.361; with 4EGI-1 + Dasatinib (first compound 15.81 µM), 0.362. For the same cell line, the relative viability in the experiment with 4EGI-1 + Dasatinib (first compound 50 µM) was 0.296.

As for COR-L23, the relative viability in the experiment with XMD8-85 + Crizotinib (first compound 0.08 µM) was 0.739; in the experiment with XMD8-85 + Crizotinib (first compound 0.253 µM), 0.561; with XMD8-85 + Crizotinib (first compound 0.8 µM) it was 0.723; with XMD8-85 + Crizotinib (first compound 2.53 µM), 0.631; with XMD8-85 + Crizotinib (first compound 8 µM), 0.299; with 4EGI-1 + Navitoclax (first compound 0.5 µM) it was 1.22. For the same cell line, the relative viability with 4EGI-1 + Navitoclax (first compound 1.581 µM) was determined as 0.802; in the experiment with 4EGI-1 + Navitoclax (first compound 5 µM), 1.1; with 4EGI-1 + Navitoclax (first compound 15.81 µM) it was 0.691; with 4EGI-1 + Navitoclax (first compound 50 µM) it was 0.147; with 4EGI-1 + Luminespib (first compound 0.5 µM) it was 0.843; with 4EGI-1 + Luminespib (first compound 1.581 µM), 0.519. Moreover, the relative viability amounted to 0.77 with 4EGI-1 + Luminespib (first compound 5 µM); 0.579 with 4EGI-1 + Luminespib (first compound 15.81 µM); 0.0992 in the experiment with 4EGI-1 + Luminespib (first compound 50 µM); 0.578 with 4EGI-1 + Dasatinib (first compound 0.5 µM); 0.207 with 4EGI-1 + Dasatinib (first compound 1.581 µM); 0.483 with 4EGI-1 + Dasatinib (first compound 5 µM). Moreover, the values for the relative viability with 4EGI-1 + Dasatinib (first compound 15.81 µM) and in the experiment with 4EGI-1 + Dasatinib (first compound 50 µM) were 0.307 and 0.141, respectively.

Take NCI-H460: the relative viability with XMD8-85 + Crizotinib (first compound 0.08 µM) is 0.996; in the experiment with XMD8-85 + Crizotinib (first compound 0.253 µM) it was 0.83; in the experiment with XMD8-85 + Crizotinib (first compound 0.8 µM), 1.19; with XMD8-85 + Crizotinib (first compound 2.53 µM), 0.619; with XMD8-85 + Crizotinib (first compound 8 µM), 0.0598; with 4EGI-1 + Navitoclax (first compound 0.5 µM), 1.22. Further, the relative viability in the experiment with 4EGI-1 + Navitoclax (first compound 5 µM) worked out at 1.16; with 4EGI-1 + Navitoclax (first compound 15.81 µM) it was 0.701; in the experiment with 4EGI-1 + Navitoclax (first compound 50 µM) it was 0.0476; in the experiment with 4EGI-1 + Luminespib (first compound 0.5 µM), 0.038; with 4EGI-1 + Luminespib (first compound 5 µM), 0.0367; with 4EGI-1 + Luminespib (first compound 15.81 µM), 0.0323. For the same cell line, the relative viability in the experiment with 4EGI-1 + Luminespib (first compound 50 µM) was 0.0228; in the experiment with 4EGI-1 + Dasatinib (first compound 0.5 µM), 0.447; with 4EGI-1 + Dasatinib (first compound 5 µM) it was 0.515; in the experiment with 4EGI-1 + Dasatinib (first compound 15.81 µM), 0.307; with 4EGI-1 + Dasatinib (first compound 50 µM), 0.0847.

NCI-H1755: the relative viability with XMD8-85 + Crizotinib (first compound 0.08 µM) was 0.901; with XMD8-85 + Crizotinib (first compound 0.253 µM) it was 0.978; with XMD8-85 + Crizotinib (first compound 0.8 µM), 0.892; in the experiment with XMD8-85 + Crizotinib (first compound 2.53 µM), 0.939; in the experiment with XMD8-85 + Crizotinib (first compound 8 µM), 0.748; in the experiment with 4EGI-1 + Navitoclax (first compound 0.5 µM) it was 1.02. Moreover, the relative viability was 0.995 with 4EGI-1 + Navitoclax (first compound 1.581 µM); 0.949 with 4EGI-1 + Navitoclax (first compound 5 µM); 0.86 with 4EGI-1 + Navitoclax (first compound 15.81 µM); 0.833 with 4EGI-1 + Navitoclax (first compound 50 µM); 0.583 with 4EGI-1 + Luminespib (first compound 0.5 µM); 0.665 with 4EGI-1 + Luminespib (first compound 1.581 µM). In addition, the relative viability amounted to 0.418 with 4EGI-1 + Luminespib (first compound 5 µM); 0.42 in the experiment with 4EGI-1 + Luminespib (first compound 15.81 µM); 0.327 in the experiment with 4EGI-1 + Luminespib (first compound 50 µM); 0.503 with 4EGI-1 + Dasatinib (first compound 0.5 µM); 0.428 with 4EGI-1 + Dasatinib (first compound 1.581 µM); 0.424 with 4EGI-1 + Dasatinib (first compound 5 µM). The relative viability turned out to be 0.412 with 4EGI-1 + Dasatinib (first compound 15.81 µM) and 0.288 with 4EGI-1 + Dasatinib (first compound 50 µM).
